Counter-ions that a name gives are not always drawn.

The text below walks through data of patent US9802917B2, “Particles of N-(5-cyano-4-((2-methoxyethyl)amino)pyridin-2-yl)-7-formyl-6-((4-methyl-2-oxopiperazin-1-yl)methyl)-3,4-dihydro-1,8-naphthyridine-1(2H)-carboxamide” (Novartis AG, priority 2015, dated 2017).

Data set [1] in a line: Basic flow energy measurement (FT4 powder rheometer). Format: physicochemical. Conditions: 25 mm vessel, 23.5 mm blade. As for the experimental part: Basic flow energy (BFE) is the energy required to establish a particular flow pattern in a conditioned, precise volume of powder. This flow pattern is a downward anti-clockwise motion of the blade, generating a compressive, relatively high stress flow mode in the powder. The BFE is calculated from the work done in moving the blade through the powder from the top of the vessel to the bottom, i.e. during the downward traverse.
In the present instance, the basic flow energy was measured using a FT4 powder rheometer from Freeman Technology under the following conditions: vessel size: 25 mm; standard Program Name: 25 mm_1C_Split_1 T; Starting accessory: 23.5 mm blade; Vessel: 25 mm×25 mL Split Vessel. The results were plotted in FIG. 9.

The nature of data set [2]: Laser diffraction particle size measurement of particles of reference example 1 (Example 4). The data set is classed as physicochemical. The following applies: laser light diffraction, after 240 seconds sonication, FIG. 7. The source says: For the measurement, a Sympatec HELOS device with a focal length of 100 mm from Sympatec GmbH, Germany, equipped with a wet dispersion device Cuvette from Sympatec GmbH, Germany was used. The test substance was dispersed in white spirit, Brenntag Schweizerhall AG, Switzerland (catalog number 12200-150) using a dispersing aid (e.g. Statsafe™ 6000, INNOSPEC Limited, ca. 1% in the white spirit).
The particles were mixed intensively, e.g. on a vortex mixer, in order to wet the substance thoroughly and to form a smooth and homogeneous paste. The paste was diluted with the white spirit to a final volume of several milliliters and the stock dispersion was mixed again.
The test dispersion was prepared by diluting of the stock dispersion with white spirit for an appropriate optical concentration and the cumulative volume distribution was determined using a laser light diffraction instrument in accordance with the instruction manual. Measurements were made before sonication and after sonication for up to 600 seconds. The parameters were set as follows: 50% amplitude at the ultrasonication device USGD-100 from Telsonic AG, and a measuring duration of about 20 seconds. The measurement was carried out twice.
The particle sizes at the undersize values of 10%, 50% and 90% (x10, x50, x90) were evaluated from the cumulative volume distribution after 240 seconds sonication. This was determined to be representative of the primary particle sizes.

Data set [3] can be described thus: Compressibility measurement (FT-4 powder rheometer). The data set is classed as physicochemical. Conditions: measured at 15 kPa normal stress. The source says: Compressibility is a measure of how density changes as a function of applied normal stress. By definition, compressibility is the percent change in volume after compression (%). The measurements were made using a FT-4 powder rheometer from Freeman technology. N-(5-cyano-4-((2-methoxyethyl)amino)pyridin-2-yl)-7-formyl-6-((4-methyl-2-oxopiperazin-1-yl)methyl)-3,4-dihydro-1,8-naphthyridine-1(2H)-carboxamide particles obtained by the process of the present invention and particles obtained by the process described in PCT/IB2014/065585 were placed in a vessel and a vented piston was used to compress the particles. The vented piston is designed such that the compression face is constructed from a woven stainless steel mesh and allows the entrained air in the powder to escape uniformly across the surface of the powder bed. A normal stress was applied in 8 sequential compression steps beginning at 0.5 kPa and ending at 15 kPa. In each step, the normal stress was held constant for 60 seconds and the compressibility was automatically calculated as a percentage change in volume. The results were plotted in FIG. 10. The compressibility percentage measured at 15 kPa was 54.14% and 54.63% for particles of the present invention. For the particles obtained by the process described in PCT/IB2014/065585, the compressibility percentage measured at 15 kPa was 49.93%.

The nature of data set [4]: Wall friction angle measurement (FT-4 powder rheometer, stainless steel). The data set is classed as physicochemical. The following applies: 316 Stainless Steel discs, 1.2 microns average roughness. The text has this: The wall friction test method has been developed to assess the interaction between the drug substance and stainless steel. The apparatus used is a FT-4 powder rheometer from Freeman technology.
N-(5-cyano-4-((2-methoxyethyl)amino)pyridin-2-yl)-7-formyl-6-((4-methyl-2-oxopiperazin-1-yl)methyl)-3,4-dihydro-1,8-naphthyridine-1(2H)-carboxamide particles obtained by the process of the present invention and particles obtained by the process described in PCT/IB2014/065585 were placed in a vessel containing the sample and a wall friction head to induce both vertical and rotational stresses. The powder sample is prepared by conditioning and then pre-consolidation using the standard FT4 blade and vented piston.
The wall friction head equipped with 1.2 microns average roughness of 316 Stainless Steel discs moves downwards to the surface of the sample and induces a normal stress as the disc contacts the top of the sample. The head continues to move downwards until the required normal stress is established. […] The torque required to maintain this rotational is measured which enables a “steady-state” shear stress to be calculated. […] A series of shear stress values is measured for a range of target applied stresses. […] The wall friction angle is then calculated by drawing a best fit line through the data points on the graph, and measuring the angle subtended between this best fit line and the horizontal. […]

Data set [5] has as its system HuH-7 hepatocellular carcinoma cells. In words: CellTiter Glo (CTG) proliferation/viability assay. Format: cell-based. The following applies: Homo sapiens, 72 h, HuH-7 cells, 3 days, GI50, read-out: HUH7 proliferation (nM) CTG. As for the experimental part:
CellTiter Glo (CTG) Assay: […] Compound-mediated suppression of cell proliferation/viability is assessed by quantification of cellular ATP levels using the CellTiter-Glo (CTG) reagent (Promega, Cat# G7573). Briefly, cells are seeded at 3'000 cells/well/80 μl fresh medium into tissue-culture-treated 96-well plates (Costar Cat#3904), followed by addition of 20 μl medium containing compound dilutions at 5-fold their final intended concentration. Dose-response effects are assessed by 3-fold serial dilutions of the test compound, starting at 10 μM. Following incubation of the cells for 3 days at 37° C. and 5% CO2, the effect of inhibitors on cell viability is quantified following addition of 50 μl CTG and luminescence measurement (integration time: 500 ms) as per vendor manual, using a correspondingly equipped multi-mode plate reader ([…], TECAN, Switzerland). For data analysis, the assay background value determined in wells containing medium, but no cells, is subtracted from all data points. To enable differentiation of cytotoxic from cytostatic compounds, the number of viable cells is assessed relative to that observed at the time of compound addition using a separate cell plate (day 0). […] Compound concentrations leading to half-maximal growth inhibition (GI50) are determined using standard four parameter curve fitting (XLfit 5.2, IDBS, UK).
A general note: Cellular ATP, detected with luciferase, serves as a proxy for viable cell number.

Data set [6] shares this test system. In words: Methylene blue staining proliferation assay (MBS). The data set is classed as cell-based. Conditions: Homo sapiens, HuH-7 cells, 72 hours, read-out: HUH7 proliferation (nM) MBS. As for the experimental part: Using a liquid handling device (Velocity 11 Bravo, Agilent), serial 3-fold dilutions of compounds were prepared in DMSO, prediluted in growth medium, followed by transfer of 10 uL/well to the cell plates. […] For data analysis, the assay background was determined in wells containing medium and lysis buffer, but no cells, and the corresponding value subtracted from all data points. […] Compound concentrations leading to half-maximal signal inhibition ([…]) were determined by standard four parametric curve fitting (XLfit 5.4, IDBS). […] Optical density was measured at A650 nm. […]

The compound `COCCNc1cc(NC(=O)N2CCCc3cc(CN4CCN(C)CC4=O)c(C=O)nc32)ncc1C#N.O=C(O)CC(O)(CC(=O)O)C(=O)O` [Example 1a, N-(5-cyano-4-((2-methoxyethyl)amino)pyridin-2-yl)-7-formyl-6-((4-methyl-2-oxopiperazin-1-yl)methyl)-3,4-dihydro-1,8-naphthyridine-1(2H)-carboxamide in citric acid form (1:1)] had a basic flow energy in data set [1] of 39.17 mJ.

`COCCNc1cc(NC(=O)N2CCCc3cc(CN4CCN(C)CC4=O)c(C=O)nc32)ncc1C#N.O=C(O)CC(O)(CC(=O)O)C(=O)O` [Reference Example 1, N-(5-cyano-4-((2-methoxyethyl)amino)pyridin-2-yl)-7-formyl-6-((4-methyl-2-oxopiperazin-1-yl)methyl)-3,4-dihydro-1,8-naphthyridine-1(2H)-carboxamide in citric acid form (1:1)]: in data set [2], the “median particle size (x50 or d50)” value is “about 3 microns”, the “particle size x10 or d10” value is recorded as “about 1 micron” and the “particle size x90 or d90” value is on record as “about 7 micron”. Further, the compressibility percentage in data set [3] worked out at 49.93%. In data set [4], this compound registered a wall friction angle of 43.18 °. This compound also yielded a basic flow energy in data set [1] (listed as particles obtained by the process described in PCT/IB2014/065585) of 185.20 mJ.

Consider `COCCNc1cc(NC(=O)N2CCCc3cc(CN4CCN(C)CC4=O)c(C=O)nc32)ncc1C#N` [Example 1, N-(5-cyano-4-((2-methoxyethyl)amino)pyridin-2-yl)-7-formyl-6-((4-methyl-2-oxopiperazin-1-yl)methyl)-3,4-dihydro-1,8-naphthyridine-1(2H)-carboxamide in citric acid salt form 1:1], for which the IC50 stood at 60.9 nM in data set [5] and 12 nM in data set [6]. In addition, the basic flow energy in data set [1] is on record as 65.07 mJ.
